In PubChem BioAssay AID1645864 (Buhrlage Lab, Dana-Farber Cancer Institute and Novartis …, 2021):
The source made the active and inactive calls.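 The calls were made as follows: active = maximal inhibition of USP17 at or above 30% in the confirmation dose-response, a value not among the printed readouts; inactive = the rest.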

What follows are compounds tested against Ubiquitin carboxyl-terminal hydrolase 17-like protein 5 (Homo sapiens) (UniProt A8MUK1) (assay: ubiquitin-specific protease 17 DUB inhibitors, concentration-effect assay, cell-free, verification of initial screening actives (AID 1645864)). Conditions: purified USP17, ubiquitin-rhodamine cleavage fluorescence, 3 h.
Chain of Ubiquitin carboxyl-terminal hydrolase 17-like protein 5 (Homo sapiens) (A8MUK1 whole entry, looked up): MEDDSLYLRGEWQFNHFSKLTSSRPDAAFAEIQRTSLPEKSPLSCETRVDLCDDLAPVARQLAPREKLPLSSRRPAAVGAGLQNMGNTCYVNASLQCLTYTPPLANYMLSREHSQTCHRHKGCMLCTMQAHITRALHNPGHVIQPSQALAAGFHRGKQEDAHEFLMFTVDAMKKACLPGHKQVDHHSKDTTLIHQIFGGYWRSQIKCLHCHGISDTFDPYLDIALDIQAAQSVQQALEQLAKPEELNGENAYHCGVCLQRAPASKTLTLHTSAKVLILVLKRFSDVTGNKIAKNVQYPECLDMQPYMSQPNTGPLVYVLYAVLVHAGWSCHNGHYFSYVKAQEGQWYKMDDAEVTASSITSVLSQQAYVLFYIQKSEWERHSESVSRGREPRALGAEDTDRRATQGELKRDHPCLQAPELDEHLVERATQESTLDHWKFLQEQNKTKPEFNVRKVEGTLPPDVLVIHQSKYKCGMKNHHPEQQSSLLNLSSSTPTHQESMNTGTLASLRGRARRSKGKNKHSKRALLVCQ
`N#C/C(=C\c1ccc(OCc2cccc(C(=O)O)c2)cc1)c1ccc(F)cc1` gave an IC50 of 29.5 µM.
Compound `Cc1cc(=O)n2c3c(c4c(cc13)c(CO)cc(=O)n4C)OC2` has an IC50 of 9.79 µM.
`O=C(Nc1nc2c(s1)COCC2)c1cc(-c2ccco2)[nH]n1` was tested, and the IC50 was > 50 µM (inactive).
`CCn1cnc2ccc(C(=O)NC3CC3)cc2c1=O` was tested, and the IC50 was > 50 µM (inactive).
`COc1ccc(NC(=O)C2CC(=O)Nc3cc(-c4ccccc4)nn32)cc1` (stereo unspecified) was tested, and the IC50 was 22.9 µM.
`CN(C)Cc1ccc(C(=O)Nc2ccc(-c3nccs3)cc2)cc1` was tested, and the IC50 was > 50 µM (inactive).
`Cc1c(OCC(=O)Nc2nc3ccccc3[nH]2)ccc2c3c(c(=O)oc12)CCC3` gave an IC50 of 0.339 µM.
For `Cc1cc2nc(/C=C/c3ccccc3)n(Cc3cccc(F)c3)c2cc1C`, the IC50 was > 50 µM (inactive).
`Clc1cncc(Oc2nc(-c3cccnc3)nc3ccccc23)c1` was tested, and the IC50 was 3.31 µM.
`CC(=O)C1=C(O)[C@]2(O)C(=O)c3c(c(C)c4ccc(C)c(O)c4c3O)C[C@H]2[C@@H](N)C1=O` gave an IC50 of 1.14 µM.
`Cn1c(=O)sc2cc(NC(=O)c3ccc(Br)cc3)ccc21` showed an IC50 of 1.8 µM.
Work on `N#Cc1ccc(NC(=O)c2ccc(S(=O)(=O)N3CCCCC3)cc2)cc1` yielded an IC50 of 11.6 µM.
In the case of `Cc1cnc2nc3c(cc2c1)CN(CCc1ccc(Cl)cc1)CC3`, the IC50 is reported as > 50 µM (inactive).
`N#Cc1ccc(-c2ccc(OCC(=O)Nc3ccc4c(c3)OCO4)cc2)cc1` was tested, and the IC50 was 2.48 µM.
With `CN1CCN(C(=O)c2ccn(-c3ccc4ccc(-c5cnn(C)c5)cn34)n2)CC1` the IC50 was > 50 µM (inactive).
`CC(=O)Nc1ccc(-n2cnc(C(=O)NC(C)c3ccccc3)c2)nc1` (stereo unspecified) showed an IC50 of 29.2 µM.
With `CSc1nc2ncc3c(=O)n(CCc4ccccc4)ccc3n2n1` the IC50 was > 50 µM (inactive).
For `Cc1sc2nc(CN3CCCC3)nc(NCCc3ccc(Cl)cc3)c2c1C`, the IC50 was > 50 µM (inactive).
With `COC(=O)c1cc2c(ccn2C)n1CC(=O)NC1CCCC1` the IC50 was > 50 µM (inactive).
With `O=C(OCc1ccc(F)cc1)c1ccc2ccccc2n1` the IC50 was > 50 µM (inactive).
`NS(=O)(=O)c1ccc(Cl)c(C(=O)OCc2csc(Nc3ccccc3)n2)c1` was tested, and the IC50 was > 50 µM (inactive).
With `COc1ccc(-c2[nH]c3ccccc3c2SCCNC(=O)c2ccc(S(=O)(=O)N3CCOCC3)cc2)cc1` the IC50 was 37.4 µM.
For `Cc1ccccc1Cc1nc(-c2ccc(=O)[nH]c2)no1`, the IC50 was > 50 µM (inactive).
In the case of `O=C(Cn1c(=O)n(Cc2ccccc2)c(=O)c2ncccc21)NCc1ccccc1Cl`, the IC50 is reported as 37.9 µM.
With `COC(=O)c1ccc(Cn2cnc3ccc(F)cc3c2=O)o1` the IC50 was > 50 µM (inactive).
`COCC(=O)Nc1cc(F)c2nc(N3CCOCC3)ccc2c1` was tested, and the IC50 was 33.8 µM.
With `CCS(=O)(=O)N1CCc2cc(C(=O)Nc3ccc4c(c3)OCCO4)ccc21` the IC50 was > 50 µM (inactive).
Compound `Cc1ccc(C(=O)c2cn(CC(=O)Nc3ccccc3)c3ccc(C)cc3c2=O)cc1` has an IC50 of 10.9 µM.
`COc1cc(O)c2c(=O)c(-c3ccc(O)cc3)coc2c1` gave an IC50 of 15.4 µM.
Work on `O=c1c(NCCCN2CCCC2)nc2ccncc2n1Cc1ccccc1` yielded an IC50 of 29.3 µM.
With `Cc1cccc(N2C(=O)/C(=C\c3ccc4c(c3)OCCO4)c3ccccc3C2=O)c1` the IC50 was 23.6 µM.
`COc1ccc(CNC(=O)c2ccccc2N2C(=O)N3CCc4c([nH]c5ccccc45)[C@@]3(C)C2=O)cc1` was tested, and the IC50 was 29.8 µM.
In the case of `O=C(NCc1cccnc1)C1CCN(c2cnc(N3CCCCCC3)nc2)CC1`, the IC50 is reported as > 50 µM (inactive).
With `O=C(NC1CC1)c1ccnn1-c1ccc2ccc(-c3ccncc3)cn12` the IC50 was > 50 µM (inactive).
`O=C(CNC(=O)c1cc2ccccc2o1)Nc1ccc2c(c1)OCCO2` gave an IC50 of 46 µM.
Work on `Cc1ccc2c(=O)c(C(=O)Nc3ccccc3)cn(CC(=O)NC3CCCCC3)c2n1` yielded an IC50 of less than 0.05 µM.
`Cc1cc(=O)n(CC(=O)NCc2ccccc2F)c2c1c(C)nn2-c1ccccc1` was tested, and the IC50 was 24.2 µM.
`COc1cc(COc2ccc3c(C)c(CC(=O)N4CC[C@@]5(O)CCCC[C@H]5C4)c(=O)oc3c2C)cc(OC)c1OC` showed an IC50 of 38.9 µM.
`COc1ccc(CCn2cnc3c4ccccc4n(C)c3c2=O)cc1OC` was tested, and the IC50 was > 50 µM (inactive).
With `CC(C)CCn1c(=O)c2ccccc2n2c(CCC(=O)NC3CCCCCC3)nnc12` the IC50 was > 50 µM (inactive).
In the case of `COc1cccc2cccc(O)c12`, the IC50 is reported as > 50 µM (inactive).
Work on `CN(Cc1ccccc1)S(=O)(=O)c1ccc2[nH]cc(C(=O)NCc3cccs3)c(=O)c2c1` yielded an IC50 of 0.749 µM.
`O=C(Cn1c(=O)n(-c2ccccc2)c(=O)c2ccc(C(=O)NCc3ccc4c(c3)OCO4)cc21)NCCC1=CCCCC1` showed an IC50 of 16.9 µM.
`O=C(CN(Cc1ccc(Cl)cc1)S(=O)(=O)c1ccc(Cl)cc1)N1CCOCC1` was tested, and the IC50 was > 50 µM (inactive).
In the case of `CC(C)CC(=O)Nc1cc(F)c2nc(N3CCOCC3)ccc2c1`, the IC50 is reported as 5.95 µM.
`O=c1[nH]c2ccccc2cc1CN(Cc1ccco1)S(=O)(=O)c1ccc(F)cc1` was tested, and the IC50 was > 50 µM (inactive).
`CC1Oc2cc3c(-c4c(O)cc(O)c5c(O)c6c(cc45)OC(C)C(C)C6=O)c(O)cc(O)c3c(O)c2C(=O)C1C` (stereo unspecified) showed an IC50 of 1.25 µM.
For `CC(=O)c1cccc(NC(=O)c2ccc(N3CCCCC3)nn2)c1`, the IC50 was 43 µM.
With `O=C(COc1cccc(-n2cnnn2)c1)Nc1ccc2c(c1)OCCO2` the IC50 was > 50 µM (inactive).
Work on `COc1cccc(N2CCN(C(=O)C3CCN(c4nc(NC(C)=O)ns4)CC3)CC2)c1` yielded an IC50 of 29.2 µM.
Work on `Nc1c(C(=O)Nc2ccc3c(c2)OCO3)sc2nc(-c3cccnc3)ccc12` yielded an IC50 of 1.64 µM.
In the case of `Cc1c(C)n(-c2ccc(Br)cn2)c2ncnc(NCCCO)c12`, the IC50 is reported as 49.9 µM.
Compound `O=C(Nc1cccc2ccccc12)C1CCCN(S(=O)(=O)Cc2ccccc2)C1` (stereo unspecified) has an IC50 of 8.53 µM.
Compound `O=C1Nc2c(Cl)cc(Cl)cc2C1(O)c1sc(NC2CCCCC2)nc1-c1ccccc1` (stereo unspecified) has an IC50 of 30.9 µM.
`CC(C)(C)C(=O)C1C2C(=O)N(Cc3ccccc3)C(=O)C2C2c3ccccc3C=CN12` (stereo unspecified) was tested, and the IC50 was > 50 µM (inactive).
Work on `O=C(CCSc1ccc(Cl)cc1)c1cccs1` yielded an IC50 of 17.1 µM.
Compound `Nc1ncnc2c1ncn2[C@@H]1O[C@H](CO)C[C@@H]1O` has an IC50 of 34.3 µM.
With `CCCC(=O)c1c[nH]c(C(=O)NCc2ccc(F)cc2)c1` the IC50 was 14.5 µM.
Compound `CC(=O)Nc1ccc(S(=O)(=O)NCc2ccc(C(=O)NCCc3ccc(Cl)cc3)cc2)cc1` has an IC50 of 2.31 µM.
`CCOC(=O)c1ccc(NC(=O)COc2cccc3c2CCN(CC)C3=O)cc1` was tested, and the IC50 was > 50 µM (inactive).
With `Cc1cccc(C(=O)N2CCN3Cc4ccccc4N(C)CC3C2)c1` (stereo unspecified) the IC50 was > 50 µM (inactive).
`O=C(Cn1cnc2ccccc21)Nc1ccc2c(c1)CCC2` showed an IC50 of 27.9 µM.
`CCCn1c(=O)c(-c2ccc(C(=O)NCc3ccc(OC)cc3)cc2)nc2cccnc21` was tested, and the IC50 was 1.78 µM.
With `O=C(Nc1ccc(F)c(Cl)c1)c1ccc(N2CCCCS2(=O)=O)cc1Cl` the IC50 was > 50 µM (inactive).
In the case of `O=C(CSc1ccc2nnc(-c3ccccc3)n2n1)N1CCCc2ccccc21`, the IC50 is reported as 13.1 µM.
In the case of `CCOc1ccc(NC(=O)Cn2cnc(S(=O)(=O)N3CCc4ccccc43)c2)cc1`, the IC50 is reported as 23.6 µM.
`CO[C@H]1CC[C@H](O)c2c1oc1c3c4c(c(O)c1c2=O)-c1c(cc2c(Cl)c(C)n(N)c(=O)c2c1O)C[C@@H]4OCO3` was tested, and the IC50 was 14 µM.
With `Nc1nc(-c2ccc[nH]2)cs1` the IC50 was > 50 µM (inactive).
In the case of `COCCCNC(=O)Cn1c(=O)n(Cc2ccc(C(=O)NCc3ccccc3OC)cc2)c(=O)c2ccccc21`, the IC50 is reported as > 50 µM (inactive).
In the case of `O=C(NCc1nc(-c2ccc3c(c2)[nH]c(=O)n3C2CCCC2)no1)c1ccccc1`, the IC50 is reported as > 5 µM (inactive).
In the case of `Cc1nc(C(=O)Nc2cccc(Cl)c2Cl)nn1-c1cc(Cl)cc(Cl)c1`, the IC50 is reported as 0.135 µM.
With `COc1ccc2nc(NC(=O)C(CC(C)C)NS(=O)(=O)c3ccc4c(c3)CCN4C(C)=O)sc2c1` (stereo unspecified) the IC50 was 29.2 µM.
`CC(C)(C)C(=O)C1C2C(=O)N(c3ccc4c(c3)OCO4)C(=O)C2C2c3ccccc3C=CN12` (stereo unspecified) was tested, and the IC50 was > 50 µM (inactive).
`COc1cccc(NC(=O)C2Cc3ccccc3N2C(=O)c2ccccc2)c1` (stereo unspecified) was tested, and the IC50 was 27.7 µM.
With `Cc1cccc(NC(=O)c2nn(C)c3ccccc3c2=O)c1` the IC50 was 27.1 µM.
`Cc1cc(N2CCN(c3ncccn3)CC2)nc2ccc(NC(=O)/C=C/c3ccccc3Cl)cc12` showed an IC50 of 12.6 µM.
`Cc1ccc(C(=O)NCC(=O)Nc2nc3ccccc3[nH]2)c(C)c1` showed an IC50 of 30.7 µM.
For `COc1ccc(NC(=O)c2[nH]nc3c2COc2ccccc2-3)c(OC)c1`, the IC50 was 5.5 µM.
For `CCCc1nc2sc3c(N(CC)CC)ncnc3c2c2c1CCC2`, the IC50 was > 50 µM (inactive).
Compound `O=C1Nc2ccccc2C(=O)C1C(c1ccc(Cl)cc1)C1C(=O)Nc2ccccc2C1=O` (stereo unspecified) has an IC50 of 35.6 µM.
With `N#Cc1ccc(NC(=O)Nc2cccn(Cc3c(F)cccc3Cl)c2=O)cc1` the IC50 was 3.86 µM.
`COc1ccc(CCNC(=O)c2noc3c2CCc2sccc2-3)cc1OC` was tested, and the IC50 was 22 µM.
For `COc1ccc(C(=O)Nc2cc(-c3ccccn3)no2)cn1`, the IC50 was > 50 µM (inactive).
In the case of `O=C(Cn1cc(C(=O)C(F)(F)F)c2ccccc21)N1CCc2ccccc21`, the IC50 is reported as 3.5 µM.
`O=C1C(O)=C(c2ccc(O)cc2)C(=O)C(O)=C1c1ccccc1` showed an IC50 of 6.1 µM.
In the case of `Nc1ccccc1SC(CC(=O)c1ccc(Cl)cc1)c1ccsc1` (stereo unspecified), the IC50 is reported as > 50 µM (inactive).
`CCOc1ccc(NC(=O)CSc2nc3n[nH]c(C)c3c(=N)n2-c2ccc(OC)cc2)cc1` was tested, and the IC50 was > 50 µM (inactive).
With `COc1ccc(Nc2ncc(C(=O)Nc3ccc(Oc4ccccc4)cc3)c3ccccc23)cc1` the IC50 was > 50 µM (inactive).
With `NS(=O)(=O)c1cc(C(=O)OCC(=O)c2ccc3c(c2)OCCO3)ccc1Cl` the IC50 was > 50 µM (inactive).
For `FC(F)(F)c1ccccc1CCN1CCc2nc3ccc(Cl)cc3cc2C1`, the IC50 was > 50 µM (inactive).
Work on `O=C(COc1ccc(Cl)cc1)NCc1nnc(SCC(=O)NCc2ccc3c(c2)OCO3)o1` yielded an IC50 of 28.2 µM.
`COC(=O)COc1ccc(/C=N/NC(=O)c2ccc(CN3CCc4ccccc4C3)cc2)cc1` gave an IC50 of 14.5 µM.
With `COc1cccc(N2CCN(C(=O)c3cc(NC(C)=O)cc4nc(C)ccc34)CC2)c1` the IC50 was > 50 µM (inactive).
In the case of `Cc1ccc(NC2=NC(c3ccco3)n3c(nc(C)cc3=O)N2)c(C)c1` (stereo unspecified), the IC50 is reported as 4.62 µM.
For `O=S(c1ccc2ccccc2c1)c1cnns1` (stereo unspecified), the IC50 was > 50 µM (inactive).
`CCOc1ccc2c(c1)c(=O)c(C(=O)c1ccccc1)cn2CC(=O)Nc1ccccc1` showed an IC50 of 5.29 µM.
`CCC1=C(c2ccc(C)cc2)S(=O)(=O)NC1=NCC(=O)NCc1ccccc1F` was tested, and the IC50 was 35.3 µM.
In the case of `COc1ccc2nc3c(cc2c1)c(=O)n(C)c1c3c(=O)n(-c2ccccc2)c(=O)n1-c1ccccc1`, the IC50 is reported as > 50 µM (inactive).
With `COc1ccc(/C=C/c2ccnc3nc(-n4cccc4)nn23)cc1` the IC50 was > 50 µM (inactive).
`COc1ccc(C(=O)N2CCCC3(C2)Nc2cccnc2NC3=NC2CCCC2)cn1` (stereo unspecified) was tested, and the IC50 was > 50 µM (inactive).
`O=C(Nc1ccc2c(c1)OCCO2)c1cccc2nc3ccccc3nc12` showed an IC50 of 2.51 µM.
